{"source": "paper PMC3338416", "about": "“A Chemocentric Approach to the Identification of Cancer Targets” (PLoS ONE, 2012)", "key": {"HCT116 cells": {"tested_on": "HCT116 cells", "experiment": "High-throughput resazurin (Alamar blue) cytotoxicity / antiproliferative assay on tumor HCT116 cells", "format": "cell-based, human", "settings": "for effect on proliferation of HCT116 cells: dose-response curves (Figure S4)", "protocol": "(§1) A colon adenocarcinoma (HCT116) and normal human lung fibroblast (MRC-5) cell lines were purchased from the American Type Culture Collection (ATCC, Manassas, VA). HCT116 cells were maintained in McCoy's 5a Modified Medium supplemented with 10% FBS, 100 units/ml penicillin, and 100 µg/ml streptomycin at 37°C in a humidified 5% CO2 incubator. Subculturing was done using 1∶5 ratio twice a week. MRC-5 cells were maintained in DMEM supplemented with 10% FBS, 100 units/ml penicillin, and 100 µg/ml streptomycin at 37°C in a humidified 5% CO2 incubator. Subculturing was done using 1∶3 ratio twice a week. A cell bank was established for the cell lines used during the differential toxicity screening campaign.\nThe high-throughput in vitro assay for measuring toxicity and antiproliferative effects of small molecules was implemented as described earlier. Cell lines were grown in culture flasks to 90% confluences, then harvested in counted cell density and seeded into 384-well microtiter plates. Test compounds were then added in various concentrations (in 2% DMSO final concentration) and incubated with the cells in CO2 incubators at 37°C for 48 h. […] During this period, FBS content of the medium was decreased to avoid the masking effect of FBS on toxicity. Detection of viability is based on the reduction of resazurin (Alamar blue) by living cells, resulting in an increased fluorescent signal. For the transformation of the assay into a high-throughput format, a Beckman Biomek liquid handling system and a Wallac Victor plate reader were used. Protocols needed for handling the 384-well plates were established for both single-concentration screening and dose-response curve determination. A plate map was used for the validation of the assay on 384-well plates, which is suitable for the determination of dose-response curves for 16 compounds at the same time using 6 concentrations in triplicate. This experiment was run in parallel on 5 plates and repeated three times on different days. From the dose-response curves, IC50 values were determined and analyzed. […] Based on the established assay protocol, single-point screenings were done at 50 µM compound concentration in duplicate. Likewise, IC50 values were obtained from the toxicity dose-response curves from six compound concentrations in duplicate and calculated with Microcal Origin 5.0."}, "colon HCT116 cell lines": {"tested_on": "colon HCT116 cell lines", "set-up": "method as in PMID 19933261", "settings": "cited from earlier work"}, "[1]": {"biological_target": "amine oxidase flavin-containing B enzyme (MAO-B)", "set-up": "method as in PMID 19933261", "settings": "reported in PubChem; cited from earlier work"}, "MRC-5 cells": {"tested_on": "MRC-5 cells", "experiment": "High-throughput resazurin (Alamar blue) cytotoxicity / antiproliferative assay on normal MRC-5 cells", "format": "cell-based, human", "settings": "dose-response curves (Figure S4)", "protocol": "as §1, with “A cell bank was established for the cell lines used during the differential toxicity screening campaign.” left out\nThe high-throughput in vitro assay for measuring toxicity and antiproliferative effects of small molecules was implemented as described earlier. Cell lines were grown in culture flasks to 90% confluences, then harvested in counted cell density and seeded into 384-well microtiter plates. […] For the transformation of the assay into a high-throughput format, a Beckman Biomek liquid handling system and a Wallac Victor plate reader were used. […] From the dose-response curves, IC50 values were determined and analyzed. To test the reproducibility and robustness of the assay for high-throughput screening, Z′ factors (∼0.72) and S/B ratios (∼10) were determined and the respective plate-to-plate and day-to-day coefficients of variation found to be 5.0%, 2.7%, 1.7% and 5.6%. […]"}, "HCT116 cell": {"tested_on": "HCT116 cell", "set-up": "method as in PMID 19139018", "settings": "cited from earlier work"}, "HCT116 cell lines": {"tested_on": "HCT116 cell lines", "set-up": "method as in PMID 21617858", "settings": "read-out: IC50, growth of HCT116 cell lines; cited from earlier work"}}}
{"compound": "O=C1c2ccccc2-c2nc(-c3cccc([N+](=O)[O-])c3)nnc21", "note": "[NSC680350]", "values": [{"measurement": "pGI50 obtained in this work on HCT116 cell lines", "setting": "HCT116 cells", "value": 5.19}, {"measurement": "GI50", "setting": "HCT116 cells; dose-response curve, Figure S5, read-out: GI50 on HCT116 cell lines", "value": 6400, "unit": "nM"}, {"measurement": "pGI50 for colon HCT116 cell lines reported in PubChem", "setting": "colon HCT116 cell lines", "value": 4.64}, {"measurement": "IC50", "setting": "[1]", "value": 80, "unit": "nM"}]}
{"compound": "C=CCNC1=C2C[C@@H](C)C[C@H](OC)[C@H](O)[C@@H](C)/C=C(\\C)[C@H](OC(N)=O)[C@@H](OC)/C=C\\C=C(/C)C(=O)NC(=CC1=O)C2=O", "note": "[17AAG, 17-(allylamino)-17-demethoxygeldanamycin]", "values": [{"measurement": "IC50", "setting": "HCT116 cells; 48 h incubation, dose-response, six concentrations in duplicate", "value": 200, "unit": "nM"}, {"measurement": "fold selectivity relative to the antiproliferative effect on MRC-5 cells", "setting": "HCT116 cells; IC50(MRC-5)/IC50(HCT116)", "value": 93, "unit": "fold"}, {"measurement": "effect on proliferation of HCT116 cells", "setting": "HCT116 cells", "value": "inhibited the proliferation of HCT116 cells in a dose dependent manner"}, {"measurement": "effect on MRC-5 cells", "setting": "MRC-5 cells", "value": "little or no effect"}]}
{"compound": "O=C(c1ccc(OCCN2CCCCC2)cc1)c1c(-c2ccc(O)cc2)sc2cc(O)ccc12", "note": "[raloxifene]", "values": [{"measurement": "inhibition of HCT116 cell growth", "setting": "HCT116 cell", "value": "inhibit HCT116 cell growth in a dose-dependent manner"}]}
{"compound": "CN(C)C/C=C/C(=O)Nc1cc2c(Nc3ccc(F)c(Cl)c3)ncnc2cc1O[C@H]1CCOC1", "note": "[afatinib]", "values": [{"measurement": "IC50", "setting": "HCT116 cell lines", "value": 1620, "unit": "nM"}]}
{"compound": "O=C(CCCCCCC(=O)Nc1ccccc1)NO", "note": "[SAHA, suberoylanilide hydroxamic acid]", "values": [{"measurement": "effect on proliferation of HCT116 cells", "setting": "HCT116 cells", "value": "inhibited the proliferation of HCT116 cells in a dose dependent manner"}, {"measurement": "effect on MRC-5 cells", "setting": "MRC-5 cells", "value": "little or no effect"}]}
